# Laboratory results from patent US9670487B2, “Cationic lipids for oligonucleotide delivery” (SIRNA THERAPEUTICS, INC., priority 2010, dated 2017).
# Columns and labels:
# [1] = tested on: mRNA transcript for the firefly (Photinus pyralis) luciferase gene; assay: In vivo efficacy in luciferase mouse model (LNP/RDV with Luc siRNA); details: for inhibition at 0.3 mg/kg: Mus musculus, LNPs prepared from the compound with Luc siRNA, 0.3 mg Kg^-1, tail vein, imaged 48 hours post dose, relative to pre-dose luminescence, read-out: Average % Inhibition of Bioluminescence
# Experimental: LNPs utilizing the compounds of the instant invention, in the nominal compositions described immediately above, were evaluated for in vivo efficacy and induction of inflammatory cytokines in a luciferase mouse model. The siRNA targets the mRNA transcript for the firefly (Photinus pyralis) luciferase gene (Accession # M15077). […] The in vivo luciferase model employs a transgenic mouse in which the firefly luciferase coding sequence is present in all cells. ROSA26-LoxP-Stop-LoxP-Luc (LSL-Luc) transgenic mice licensed from the Dana Farber Cancer Institute are induced to express the Luciferase gene by first removing the LSL sequence with a recombinant Ad-Cre virus (Vector Biolabs). Due to the organo-tropic nature of the virus, expression is limited to the liver when delivered via tail vein injection. Luciferase expression levels in liver are quantitated by measuring light output, using an IVIS imager (Xenogen) following administration of the luciferin substrate (Caliper Life Sciences). Pre-dose luminescence levels are measured prior to administration of the RDVs. Luciferin in PBS (15 mg/mL) is intraperitoneally (IP) injected in a volume of 150 uL. After a four minute incubation period mice are anesthetized with isoflurane and placed in the IVIS imager. The RDVs (containing siRNA) in PBS vehicle were tail vein injected n a volume of 0.2 mL. Final dose levels ranged from 0.3 to 3 mg/kg siRNA. PBS vehicle alone was dosed as a control. Three hours post dose, mice were bled retro-orbitally to obtain plasma for cytokine analysis. Mice were imaged 48 hours post dose using the method described above. Changes in luciferin light output directly correlate with luciferase mRNA levels and represent an indirect measure of luciferase siRNA activity. In vivo efficacy results are expressed as % inhibition of luminescence relative to pre-dose luminescence levels. Plasma cytokine levels were determined using the SearchLight multiplexed cytokine chemiluminescent array (Pierce/Thermo). Systemic administration of the luciferase siRNA RDVs decreased luciferase expression in a dose dependant manner. […]
# [2] = Rat in vivo tolerability: serum ALT and AST after LNP dosing; details: Sprague-Dawley female rats; RDV with ApoB siRNA; tail vein; 24 hours after dosing; FIG. 4
# Experimental: Six hours post dose, food is removed from the cages. Animal necropsy is performed 24 hours after LNP dosing. Rats are anesthetized under isoflurane for 5 minutes, then maintained under anesthesia by placing them in nose cones continuing the delivery of isoflurane until ex-sanguination is completed. Blood is collected from the vena cava using a 23 gauge butterfly venipuncture set and aliquoted to serum separator vacutainers for serum chemistry analysis. Punches of the excised caudate liver lobe are taken and placed in RNALater (Ambion) for mRNA analysis. Preserved liver tissue was homogenized and total RNA isolated using a Qiagen bead mill and the Qiagen miRNA-Easy RNA isolation kit following the manufacturer's instructions. Liver ApoB mRNA levels were determined by quantitative RT-PCR. Message was amplified from purified RNA utilizing a rat ApoB commercial probe set (Applied Biosystems Cat # RN01499054_ml). The PCR reaction was performed on an ABI 7500 instrument with a 96-well Fast Block. The ApoB mRNA level is normalized to the housekeeping PPIB (NM 011149) mRNA. PPIB mRNA levels were determined by RT-PCR using a commercial probe set (Applied Biosystems Cat. No. Mm00478295_ml). Results are expressed as a ratio of ApoB mRNA/PPIB mRNA. All mRNA data is expressed relative to the PBS control dose. […]
# [3] = tested on: mRNA transcript for the ApoB gene; assay: Rhesus monkey in vivo efficacy: serum LDL-C as surrogate marker of ApoB mRNA reduction; design: species or system Macaca mulatta (rhesus) monkeys; details: RDVs containing the compound and ApoB siRNA; 1 mg/kilogram siRNA intravenous; 2-12 days post administration; FIG. 6
# Experimental: LNPs utilizing compound 34 in the nominal compositions described above, were evaluated for in vivo efficacy in male or female Macaca mulatta (rhesus) monkeys. The siRNA targets the mRNA transcript for the ApoB gene (Accession # XM 001097404). […] The RDVs (containing siRNA) in PBS vehicle were administered by intravenous injection in the saphenous vein at an injection rate of 20 mL/minute to a dose level of 1 mg/kilogram siRNA. The injection volumes were from 1.9 to 2.1 mL/kilogram and monkeys ranged in weight from 2.5 to 4.5 kilograms. The RDV or PBS control were administered to three monkeys. At multiple days post dose, 1 mL blood samples were drawn from the femoral artery for serum chemistry analysis. Monkeys were fasted overnight prior to blood draws. As a measure of efficacy, LDL-C was monitored as a downstream surrogate marker of ApoB mRNA reduction. At 2-12 days post systemic administration of RDVs containing compound 34, serum levels of LDL-C were reduced to less than 30% of pre-dose levels (FIG. 6).
smiles,measurement,setting,value
"CCCCC/C=C\C/C=C\CCCCCCCCOC(CN(C)C)OCCCCCCCC/C=C\C/C=C\CCCCC [Compound 2, N,N-dimethyl-2,2-bis[(9Z,12Z)-octadeca-9,12-dien-1-yloxy]ethanamine]",inhibition at 0.3 mg/kg,[1],64%
same,"Efficacy compared with RDV containing octyl-CLinDMA cationic lipid, Compound 4","[1]; mice dosed with RDVs containing the compound and Luc siRNA, Table 1",Greater efficacy
"CCCCC/C=C\C/C=C\CCCCCCCCOC(CN(C)C)OCCCCCCCC (centres unmarked) [Compound 31, N,N-dimethyl-2-[(9Z,12Z)-octadeca-9,12-dien-1-yloxy]-2-(octyloxy)ethanamine]",Tolerability (serum ALT and AST) compared with RDV containing DLinKC2DMA cationic lipid 64,[2],better tolerability
"CCCCC/C=C\C/C=C\CCCCCCCCOCC(CN(C)C)OCCCCCCCCO[C@H]1CC[C@@]2(C)C(=CC[C@H]3[C@@H]4CC[C@H]([C@H](C)CCCC(C)C)[C@@]4(C)CC[C@@H]32)C1 (some centres unmarked) [Compound 4, S-Octyl CLinDMA, reference compound]",inhibition at 0.3 mg/kg,[1],55%
"CCC/C=C\CCCCCCCOC(CN1CCCC1)OCCCCCCCC/C=C\C/C=C\CCCCC (centres unmarked) [Compound 34, 1-{2-[(8Z)-dodec-8-en-1-yloxy]-2-[(9Z,12Z)-octadeca-9,12-dien-1-yloxy]ethyl}pyrrolidine]",Serum levels of LDL-C,[3],less than 30 % of pre-dose levels
